The source of these data is PubChem BioAssay (NCI).

Test systems include SF-268 CNS; SK-OV-3 ovarian; OVCAR-8 ovarian; UO-31 renal; HOP-92 NSCLC; HL-60(TB) leukemia; HCT-116 colon; HOP-62 NSCLC; U251 CNS; KM12 colon; CCRF-CEM leukemia; SK-MEL-2 melanoma; OVCAR-3 ovarian; CAKI-1 renal; MDA-MB-231 breast.
What all share (assay): inhibition of tumour cell growth, NCI panel, 48 h

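Exposure lasted 48 hours, with cells grown in 96-well plates and compounds tested at five concentrations. TGI denotes the concentration required for complete inhibition of growth.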

As for `COc1ccccc1OCc1nnc(SCC(=O)O)n1-c1ccccc1`, the TGI with SF-268 CNS, with SK-OV-3 ovarian, in the assay with OVCAR-8 ovarian, with UO-31 renal, with HOP-92 NSCLC and in the assay on HL-60(TB) leukemia was over 100 µM throughout. In addition, the TGI with HCT-116 colon, in the assay on HOP-62 NSCLC, with U251 CNS, with KM12 colon, with CCRF-CEM leukemia and with SK-MEL-2 melanoma was over 100 µM each time. Also, the TGI with OVCAR-3 ovarian is over 100 µM.

For the compound `CCOP(=O)(C/C(=N/NC(C)(C)C)C(=O)Nc1nc2ccc(C)cc2s1)OCC`, the TGI in the assay with SF-268 CNS, in the assay on SK-OV-3 ovarian, in the assay on OVCAR-8 ovarian, with UO-31 renal, in the assay on HL-60(TB) leukemia and in the assay with HCT-116 colon was over 100 µM throughout. Besides, the TGI in the assay with HOP-62 NSCLC, in the assay on U251 CNS, in the assay with KM12 colon, in the assay on CCRF-CEM leukemia, in the assay on SK-MEL-2 melanoma and with CAKI-1 renal was over 100 µM throughout. The TGI with OVCAR-3 ovarian was over 100 µM.

As to `CNC(=O)OC(C)CN1c2ccccc2Sc2ccccc21` (stereo not drawn), the TGI in the assay on SF-268 CNS, with SK-OV-3 ovarian, in the assay with OVCAR-8 ovarian, in the assay with UO-31 renal, with MDA-MB-231 breast and in the assay with HOP-92 NSCLC was over 100 µM each time. In addition, the TGI in the assay on HL-60(TB) leukemia, in the assay on HCT-116 colon, in the assay on HOP-62 NSCLC, in the assay on U251 CNS, with KM12 colon and with CCRF-CEM leukemia was over 100 µM throughout. Moreover, the TGI in the assay with CAKI-1 renal and in the assay with OVCAR-3 ovarian was over 100 µM throughout.

For the compound `COC(=O)C(=O)C(C(=O)C(=O)Nc1ccc([N+](=O)[O-])cc1C#N)c1nc2ccc([N+](=O)[O-])cc2[nH]c1=O` (stereo not drawn), the TGI with SF-268 CNS, with SK-OV-3 ovarian, in the assay with OVCAR-8 ovarian, in the assay on UO-31 renal, in the assay on HOP-92 NSCLC and in the assay with HL-60(TB) leukemia was over 100 µM in each case. The TGI in the assay on HCT-116 colon, in the assay on HOP-62 NSCLC, in the assay with U251 CNS, in the assay on KM12 colon, in the assay on CCRF-CEM leukemia and with SK-MEL-2 melanoma was over 100 µM in each case. The TGI with CAKI-1 renal and in the assay on OVCAR-3 ovarian was over 100 µM each time.

As for `CCN(CC)CCNC(=O)c1ccccc1Nc1c(Cl)cccc1Cl`, the TGI with SF-268 CNS was determined as 34.7 µM; in the assay on SK-OV-3 ovarian, 30.4 µM; with OVCAR-8 ovarian, 31.5 µM; with UO-31 renal, 22.2 µM; in the assay with HL-60(TB) leukemia, 25.5 µM; in the assay on HCT-116 colon, 25.7 µM. Further, the TGI in the assay on HOP-62 NSCLC came to 24.2 µM; in the assay on U251 CNS, 20.7 µM; with CCRF-CEM leukemia, 35.2 µM.

Consider `COc1cc2c(cc1OC)[C@]1(O)C(=O)c3ccc4c(c3O[C@@H]1CO2)C[C@H](C(C)(C)O)O4`, for which the TGI in the assay on SK-OV-3 ovarian, with OVCAR-8 ovarian, with UO-31 renal, with HOP-92 NSCLC, in the assay with HL-60(TB) leukemia and in the assay on HCT-116 colon was over 100 µM in each case. Besides, the TGI in the assay with HOP-62 NSCLC, in the assay with U251 CNS, in the assay on KM12 colon, in the assay with CCRF-CEM leukemia, in the assay with SK-MEL-2 melanoma and with OVCAR-3 ovarian was over 100 µM each time.

Consider `CCC(=O)NCC1(c2c[nH]c3ccccc23)SCCS1`, for which the TGI in the assay on SF-268 CNS, with SK-OV-3 ovarian, in the assay with OVCAR-8 ovarian, in the assay with HOP-92 NSCLC, in the assay with HL-60(TB) leukemia and with HCT-116 colon was over 100 µM in each case. Also, the TGI in the assay on HOP-62 NSCLC, with U251 CNS, in the assay on KM12 colon, in the assay with CCRF-CEM leukemia, in the assay on SK-MEL-2 melanoma and with CAKI-1 renal was over 100 µM in each case. This compound also had a TGI in the assay on OVCAR-3 ovarian of over 100 µM.

With `O=c1[nH]nc2c3n[nH]c(=O)n3c3ccccc3n12`, the TGI with SF-268 CNS, in the assay with SK-OV-3 ovarian, in the assay with OVCAR-8 ovarian, in the assay on UO-31 renal, with HOP-92 NSCLC and in the assay on HCT-116 colon was over 100 µM in each case. In addition, the TGI with HOP-62 NSCLC, in the assay with U251 CNS, with KM12 colon, in the assay with CCRF-CEM leukemia, with SK-MEL-2 melanoma and in the assay on CAKI-1 renal was over 100 µM each time. In the assay on OVCAR-3 ovarian, this compound gave a TGI of over 100 µM.

Take `CC(=O)C1CC2(c3ccccc3)C(=O)c3ccccc3N2O1` (stereo not drawn): the TGI in the assay on SF-268 CNS, in the assay on SK-OV-3 ovarian, with OVCAR-8 ovarian, in the assay with UO-31 renal, with HOP-92 NSCLC and in the assay on HL-60(TB) leukemia was over 100 µM throughout. For the same compound, the TGI with HCT-116 colon, in the assay with HOP-62 NSCLC, in the assay with U251 CNS and in the assay on CCRF-CEM leukemia was over 100 µM throughout.

Consider `C/C(CC(=O)Nc1ccc(C)cc1)=N\NC(N)=S`, for which the TGI in the assay with SF-268 CNS, with SK-OV-3 ovarian, in the assay with OVCAR-8 ovarian, in the assay with UO-31 renal, in the assay on HOP-92 NSCLC and in the assay on HL-60(TB) leukemia was over 100 µM in each case. Besides, the TGI in the assay with HCT-116 colon, in the assay with HOP-62 NSCLC, with U251 CNS, in the assay with KM12 colon, with CCRF-CEM leukemia and with SK-MEL-2 melanoma was over 100 µM throughout. Moreover, the TGI in the assay on OVCAR-3 ovarian was over 100 µM.

On to `CCOC(=O)c1c(N2CCOCC2)[nH]c(=O)c(C(c2ccc(N(C)C)cc2)c2c(O)c(C(=O)OCC)c(N3CCOCC3)[nH]c2=O)c1O`, for which the TGI in the assay with SF-268 CNS, with SK-OV-3 ovarian, in the assay with OVCAR-8 ovarian, in the assay on UO-31 renal, with MDA-MB-231 breast and with HOP-92 NSCLC was over 100 µM in each case. Also, the TGI in the assay on HCT-116 colon, in the assay with HOP-62 NSCLC, in the assay with U251 CNS, with KM12 colon, in the assay on CCRF-CEM leukemia and in the assay on SK-MEL-2 melanoma was over 100 µM throughout. Besides, the TGI in the assay with CAKI-1 renal and in the assay with OVCAR-3 ovarian was over 100 µM in each case.

In the case of `CCCN(CCC)C(=O)Cc1c2n(c3ccccc13)CCCc1ccccc1-2`, the TGI with SF-268 CNS came out at 28.5 µM; in the assay with SK-OV-3 ovarian, 29 µM; in the assay on OVCAR-8 ovarian, 29.9 µM; with UO-31 renal, 27.2 µM; in the assay with HOP-92 NSCLC, 14.7 µM; in the assay on HL-60(TB) leukemia, 37.1 µM. Besides, the TGI in the assay on HCT-116 colon stood at 26.3 µM; in the assay on HOP-62 NSCLC it was 30.3 µM; in the assay on U251 CNS, 29.4 µM; in the assay with KM12 colon it was 25.2 µM; with CCRF-CEM leukemia, 37.2 µM; in the assay on SK-MEL-2 melanoma it was 25.8 µM. Further, the results for the TGI in the assay on CAKI-1 renal and in the assay on OVCAR-3 ovarian were 28.4 µM and 29.5 µM, respectively.

As for `CN1C(=O)c2cccc3c([N+](=O)[O-])ccc(c23)C1=O`, the TGI came to 23.5 µM in the assay with SF-268 CNS; 27.9 µM with SK-OV-3 ovarian; 18.9 µM with OVCAR-8 ovarian; 26.7 µM in the assay with UO-31 renal; 19.9 µM with HOP-92 NSCLC; 18.9 µM in the assay with HCT-116 colon. The TGI in the assay with HOP-62 NSCLC turned out to be 24.7 µM; in the assay on U251 CNS, 13.8 µM; with KM12 colon, 18.3 µM; in the assay on CCRF-CEM leukemia it was 39.5 µM; in the assay on SK-MEL-2 melanoma, 24.8 µM; in the assay on CAKI-1 renal, 5.17 µM. The same compound yielded a TGI in the assay on OVCAR-3 ovarian of 11.4 µM.

In the case of `CSc1ccc2c(cc1=O)C(NC(=O)c1cc(O)c(OC(=O)O)c(O)c1)CCc1cc(O)c(O)c(O)c1-2` (stereo not drawn), the TGI was 43 µM in the assay on SF-268 CNS; over 90 µM in the assay on SK-OV-3 ovarian; over 90 µM in the assay with OVCAR-8 ovarian; over 90 µM with UO-31 renal; 51.4 µM with HOP-92 NSCLC; 70.3 µM in the assay with HL-60(TB) leukemia. For the same compound, the TGI is 29.1 µM in the assay on HCT-116 colon; 64.5 µM with HOP-62 NSCLC; 32.9 µM in the assay on U251 CNS; 65.3 µM with KM12 colon; over 90 µM in the assay on CCRF-CEM leukemia; over 90 µM with SK-MEL-2 melanoma. In addition, the TGI in the assay with CAKI-1 renal is 41.9 µM; with OVCAR-3 ovarian it was 40 µM.

`CC1(Br)C(=O)NC(=O)N([C@H]2C[C@H](O)[C@@H](CO)O2)C1N=[N+]=[N-]` (stereo partly drawn): the TGI in the assay on SF-268 CNS, in the assay on SK-OV-3 ovarian, with OVCAR-8 ovarian, with UO-31 renal, in the assay on HOP-92 NSCLC and in the assay with HL-60(TB) leukemia was over 100 µM throughout. In addition, the TGI in the assay with HCT-116 colon, with HOP-62 NSCLC, in the assay on U251 CNS, with KM12 colon, in the assay on CCRF-CEM leukemia and in the assay with SK-MEL-2 melanoma was over 100 µM throughout. Besides, the TGI with CAKI-1 renal and with OVCAR-3 ovarian was over 100 µM throughout.

Consider `O=C1c2ccccc2N2OC3C4CCC(C4)C3C12c1ccccc1` (stereo not drawn), for which the TGI in the assay with SF-268 CNS, in the assay on SK-OV-3 ovarian, with OVCAR-8 ovarian, in the assay on UO-31 renal, in the assay on HOP-92 NSCLC and in the assay on HL-60(TB) leukemia was over 100 µM in each case. The TGI with HCT-116 colon, in the assay with HOP-62 NSCLC, in the assay on U251 CNS and with CCRF-CEM leukemia was over 100 µM in each case.
